Source: article doi:10.1101/2022.10.27.513961v1 (bioRxiv, 2022)

Legend:
Type in all cases: cell-based
[1] = tested on: WM164 cells; assay: Cytotoxicity, resazurin assay; conditions: Homo sapiens, WM164, Parental WM164 cells
[2] = tested on: HT144 cells; assay: Cytotoxicity, resazurin assay; conditions: for IC50: Homo sapiens
[3] = tested on: WM164 cells; assay: Co-treatment of dabrafenib with peptide, resazurin assay; conditions: drug-naïve WM164, drug (50 nM) or peptide (at IC50) added alone, 72 h
[4] = tested on: WM164 cells; assay: Lipidome analysis, shotgun tandem MS of lipid extracts
[5] = tested on: HT144 cells; assay: as above
[6] = tested on: WM164 cells; assay: Cell surface charge, zeta potential; conditions: WM164 PDRCs (105 days with dabrafenib), mean ± SEM, n=3
[7] = tested on: HT144 cells; assay: Cell surface charge, zeta potential; conditions: mean ± SEM, n=3
[8] = tested on: WM164 cells; assay: Microscopy during long-term treatment; conditions: WM164, 100 nM dabrafenib
[9] = tested on: HT144 cells; assay: Microscopy during long-term treatment; conditions: HT144, 100 nM dabrafenib
[10] = WM164, 15-30 days of dabrafenib
[11] = WM164, dabrafenib 30 days vs untreated
[12] = HT144, dabrafenib 30 days vs untreated

**Q.** Which IC50 [1] does the source give for CC(C)(C)c1nc(-c2cccc(NS(=O)(=O)c3c(F)cccc3F)c2F)c(-c2ccnc(N)n2)s1 [dabrafenib, reference compound] here?
**A.** 44 nM

**Q.** What about the IC50 ([2]; HT-144, 72 h, HT144 PDRC (100 nM), resazurin three days after drug) of the same compound?
**A.** > 1000 nM

**Q.** What about the IC50 ([2]; HT-144, Parental HT144 cells) of the same compound?
**A.** 22 nM

**Q.** And the toxicity ([2]; PDR HT144 cells, at 1µM)?
**A.** ~10%

**Q.** And the cell death [3]?
**A.** ~ 50%

**Q.** What about the SM proportion ([4]; WM164, 100 nM dabrafenib 30 days (untreated 3)) of the same compound?
**A.** 11 mol%

**Q.** And the “fold increase of PI 38:4” value [4, 10]?
**A.** 3 fold

**Q.** And the “fold increase of SM 36:1” value [4, 10]?
**A.** 3 fold

**Q.** What about the “SM 36:1 abundance” value ([4]; WM164, 15-30 days of dabrafenib (before 8)) of the same compound?
**A.** 26 mol%

**Q.** And the “PI 38:4 abundance” value ([4]; WM164, 15-30 days of dabrafenib (before 18))?
**A.** 55 mol%

**Q.** What about the “negatively charged lipids (PS+PI) proportion” value ([4]; WM164, dabrafenib 30 days (untreated 19)) of the same compound?
**A.** 23 mol%

**Q.** And the “zwitterionic PE and PC proportion” value ([4]; WM164, dabrafenib 30 days (untreated 78))?
**A.** 66 mol%

**Q.** What about the “fold decrease in PE and PC” value [4, 11] of the same compound?
**A.** 0.8 fold

**Q.** And the “fold increase in PS+PI” value [4, 11]?
**A.** 1.2 fold

**Q.** And the “fold increase in SM” value [4, 11]?
**A.** 3.7 fold

**Q.** What about the SM proportion ([5]; HT144, dabrafenib 30 days (untreated 5)) of the same compound?
**A.** 9 mol%

**Q.** What about the PE proportion ([5]; HT144, dabrafenib 30 days (untreated 15)) of the same compound?
**A.** 20 mol%

**Q.** What about the PC proportion ([5]; HT144, dabrafenib 30 days (untreated 59)) of the same compound?
**A.** 51 mol%

**Q.** And the “fold decrease in PC” value [5, 12]?
**A.** 0.9 fold

**Q.** And the “fold increase in PE” value [5, 12]?
**A.** 1.3 fold

**Q.** What about the “fold increase in SM” value [5, 12] of the same compound?
**A.** 1.8 fold

**Q.** What about the “surface charge, zeta potential” value [6] of the same compound?
**A.** −20.18 ± 0.95 mV

**Q.** What about the “surface charge, zeta potential” value ([7]; HT144 DTPs (30 days with dabrafenib)) of the same compound?
**A.** −15.94 ± 0.59 mV

**Q.** What about the “surface charge, zeta potential” value ([7]; HT144 PDRCs (105 days with dabrafenib)) of the same compound?
**A.** −17.7 ± 0.30 mV

**Q.** And the “time to death of drug-naïve cells” value [8]?
**A.** ≤ 48 h

**Q.** And the “time to death of drug-naïve cells” value [9]?
**A.** ≤ 48 h
